The values below come from patent publication US12338203B2 (TAISHO PHARMACEUTICAL CO., LTD., priority 2019, dated 2025).

Each structure is given as a SMILES string.

The assay addresses T1, human LPAR1 (Homo sapiens, UniProt Q92633).
T1 construct: expressed in transfected cells
The assay is described as follows: Test Example 1: antagonism against response of LPA-induced increase in intracellular Ca2+ concentration in RH7777 cells stably expressing human LPAR1. In kind it is cell-based. The settings on record: RH7777 cells stably expressing human LPAR1; Fluo-4 fluorescence, FDSS6000; read-out: IC50 value (concentration producing 50% antagonism against response of LPA-induced increase in intracellular Ca2+ concentration) (converted). The gist of the method: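 RH7777 cells stably transfected with human LPAR1 were preincubated with test compound 30 min at 37 °C in HBSS/20 mM HEPES/probenecid/0.05% BSA buffer, pH 7.4, then LPA-stimulated.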

T1 sequence (Q92633 whole entry): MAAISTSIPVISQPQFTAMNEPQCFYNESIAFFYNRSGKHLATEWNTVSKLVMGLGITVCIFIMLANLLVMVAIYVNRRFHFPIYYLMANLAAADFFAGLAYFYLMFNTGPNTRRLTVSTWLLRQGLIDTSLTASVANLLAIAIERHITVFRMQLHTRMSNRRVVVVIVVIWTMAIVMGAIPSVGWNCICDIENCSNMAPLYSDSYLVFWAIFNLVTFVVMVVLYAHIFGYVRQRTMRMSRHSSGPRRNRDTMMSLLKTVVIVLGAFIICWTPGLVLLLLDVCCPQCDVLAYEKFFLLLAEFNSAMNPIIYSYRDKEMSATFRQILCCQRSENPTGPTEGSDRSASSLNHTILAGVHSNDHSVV

As for `CCOc1cc(C(C)N(CCOC(C)c2ccccc2)C(=O)NC2(c3nn[nH]n3)CC(OC)C2)cc(OCC)c1C1CC1` (stereo not drawn) [Example 10-15], the IC50 was 2.38 nM.

On to `Cc1cc(C)cc(CN(CCCCc2ccccc2)C(=O)NC2(C(=O)O)CCCC2)c1` [Example 5-23], for which the IC50 is 3930 nM.

On to `CCOc1cc(C(C)N(CCCCc2ccccc2)C(=O)NC2(C(=O)O)CCC(C(=O)O)CC2)cc(OCC)c1C` (stereo not drawn) [Example 1-120], for which the IC50 was 1670 nM.

Take `CCOc1cc(C(C)N(CCCCc2ccccc2)C(=O)NC2CCC(C(=O)O)CC2)cc(OCC)c1C` (stereo not drawn) [Example 1-143]: the IC50 was 200 nM.

`CCOc1cc([C@@H](C)N(CCC(F)(F)Cc2ccccc2)C(=O)NC2(C(=O)O)CC(OCC)C2)cc(OCC)c1C(C)=O` (stereo partly drawn) [Example 4-93]: the IC50 was 10.1 nM.

Consider `CCOc1cc(C(C)N(CCOCc2ccccc2)C(=O)NC2(C(=O)O)CC(OCC)C2)cc(OCC)c1C1CC1` (stereo not drawn) [Example 5-211], for which the IC50 is 1.1 nM.

With `CCOc1cc(C(C)N(CCCC(F)(F)c2ccccc2)C(=O)NC2(C(=O)O)CC2)cc(OCC)c1C(C)O` (stereo not drawn) [Example 4-48], the IC50 is 2.55 nM.

With `CCOc1cc([C@@H](C)N(CCOCc2ccccc2)C(=O)NC2(C(=O)O)CCOCC2)c(Cl)c(OCC)c1C(C)=O` [Example 5-39], the IC50 was 0.516 nM.

On to `CCOc1cc(C(C)N(CCOCc2ccccc2)C(=O)NC2(C(=O)O)CCOCC2)cc(OCC)c1C1CC1` (stereo not drawn) [Example 5-224], for which the IC50 is 0.949 nM.

As to `CCOc1cc(C(C)N(CCO[C@@H](C)c2ccccc2)C(=O)NC2(C(=O)OC(C)(C)C)CC(OCC)C2)cc(OCC)c1C(C)=O` (stereo partly drawn) [Example 6-14], the IC50 was 3530 nM.

In the case of `CCOc1cc([C@@H](C)N(CCO[C@@H](C)c2ccccc2)C(=O)N[C@]2(C(=O)O)C[C@@H](OCC)C2)cc(OCC)c1C1CC1` [Example 4-138, trans-1-[([(1R)-1-(4-cyclopropyl-3,5-diethoxyphenyl)ethyl]{2-[(1S)-1-phenylethoxy]ethyl}carbamoyl)amino]-3-ethoxycyclobutane-1-carboxylic acid], the IC50 was 2.91 nM.

As for `CCOc1cc([C@@H](C)N(CCO[C@@H](C)c2ccccc2)C(=O)N[C@]2(C(=O)O)C[C@H](OC)C2)c(Cl)c(OCC)c1C(C)=O` [Example 5-29], the IC50 was 4.63 nM.

For the compound `CCOc1c(C(C)=O)ccc([C@@H](C)N(CCCC(F)(F)c2ccccc2)C(=O)N[C@]2(C(=O)O)C[C@@H](OC)C2)c1C` [Example 4-63], the IC50 is 3.94 nM.

Turning to `CCOc1cc([C@@H](C)N(CCC(F)(F)Cc2ccccc2)C(=O)NC2(C(=O)O)CCOCC2)c(Cl)c(OCC)c1C(C)O` (stereo partly drawn) [Example 5-68, 4-{[{(1R)-1-[2-Chloro-3,5-Diethoxy-4-(1-Hydroxyethyl)Phenyl]Ethyl}(3,3-Difluoro-4-Phenylbutyl) Carbamoyl]Amino}Oxane-4-Carboxylic Acid], the IC50 is 31 nM.

On to `CCOc1cc(C(C)N(CCOCc2ccccc2)C(=O)NC2(C(=O)O)CC2)c(Cl)c(OCC)c1C(C)=O` (stereo not drawn) [Example 5-184], for which the IC50 is 2.53 nM.

Regarding `COc1cc(C(C)N(CCO[C@@H](C)c2ccccc2)C(=O)NC2(C(=O)O)CCC2)c(C)c(OC)c1C` (stereo partly drawn) [Example 5-140], the IC50 was 10.8 nM.

Consider `CCOc1cc([C@@H](C)N(CCOCc2ccccc2)C(=O)NC2(C(=O)O)CC(OC)C2)c(C)c(OCC)c1C` (stereo partly drawn) [Example 5-78], for which the IC50 was 1.05 nM.

For `CCOc1cc([C@@H](C)N(CCOCc2ccccc2)C(=O)NC2(C(=O)O)CC(F)(F)C2)cc(OCC)c1C(C)O` (stereo partly drawn) [Example 4-104], the IC50 was 1.31 nM.

In the case of `CCOc1cc(C(C)N(CCCCc2ccccc2)C(=O)NC2CC(C(=O)O)C2)cc(OCC)c1C(C)=O` (stereo not drawn) [Example 1-129], the IC50 was 9.98 nM.

In the case of `CCOC1CC(NC(=O)N(CCOC(C)c2ccccc2)C(C)c2cc(OC)c(C3CC3)c(OC)c2C)(C(=O)O)C1` (stereo not drawn) [Example 5-169], the IC50 was 7.97 nM.

With `CCOc1cc([C@@H](C)N(CCCCc2ccccc2)C(=O)NC2(C(=O)O)CC3(CCC3)C2)cc(OCC)c1C` [Example 1-121], the IC50 was 9.23 nM.
